Measurements reported in the Kinase Knowledgebase extract (Sharma et al. 2016).

What follows are molecules tested against PIK3CA (human) (UniProt P42336) (assay: Assessment of PIK3CA Kinase Activity).
Sequence of PIK3CA (human) (P42336 whole entry, looked up): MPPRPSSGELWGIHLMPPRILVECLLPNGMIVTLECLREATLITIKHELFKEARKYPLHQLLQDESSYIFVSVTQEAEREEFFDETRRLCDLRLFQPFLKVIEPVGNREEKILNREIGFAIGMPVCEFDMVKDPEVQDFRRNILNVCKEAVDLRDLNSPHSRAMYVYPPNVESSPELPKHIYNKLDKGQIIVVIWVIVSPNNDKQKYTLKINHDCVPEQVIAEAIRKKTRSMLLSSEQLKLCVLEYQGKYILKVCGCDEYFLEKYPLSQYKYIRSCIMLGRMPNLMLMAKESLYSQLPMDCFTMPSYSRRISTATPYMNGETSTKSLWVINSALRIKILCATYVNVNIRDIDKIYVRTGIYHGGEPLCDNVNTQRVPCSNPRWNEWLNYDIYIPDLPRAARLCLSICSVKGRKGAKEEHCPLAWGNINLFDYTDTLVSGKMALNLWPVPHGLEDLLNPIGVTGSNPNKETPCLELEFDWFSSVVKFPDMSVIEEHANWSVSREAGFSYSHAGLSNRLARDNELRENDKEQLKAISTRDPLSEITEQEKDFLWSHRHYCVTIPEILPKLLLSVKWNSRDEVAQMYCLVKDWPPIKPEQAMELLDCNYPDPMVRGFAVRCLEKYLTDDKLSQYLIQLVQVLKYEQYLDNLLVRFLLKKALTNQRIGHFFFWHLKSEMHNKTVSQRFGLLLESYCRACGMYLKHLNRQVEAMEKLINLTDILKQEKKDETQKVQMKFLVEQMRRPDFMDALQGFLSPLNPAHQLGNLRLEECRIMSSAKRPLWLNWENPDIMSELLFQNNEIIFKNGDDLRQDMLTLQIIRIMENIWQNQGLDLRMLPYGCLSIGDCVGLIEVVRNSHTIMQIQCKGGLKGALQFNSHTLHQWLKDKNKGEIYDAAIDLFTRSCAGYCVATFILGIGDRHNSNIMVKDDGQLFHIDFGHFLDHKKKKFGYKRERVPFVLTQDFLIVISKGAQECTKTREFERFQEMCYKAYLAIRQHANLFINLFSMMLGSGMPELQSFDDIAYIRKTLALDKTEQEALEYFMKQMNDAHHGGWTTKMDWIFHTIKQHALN

IC50, < 1 µM:
CCN1[C@H](C)CN(c2ccc3c(n2)-c2sc(-c4ncnn4-c4ccc(F)cc4F)cc2CCO3)C[C@@H]1C, Cc1nc(-c2nc3c(s2)CCOc2cc(-c4cnn(C5CNC5)c4)ccc2-3)n(C(C)C)n1, COCCN1CCC(c2ccc3c(c2)OCCc2sc(-c4ncnn4C(C)C)nc2-3)CC1, COc1ncccc1-c1ccc2c(c1)-c1nc(C(=O)N(CCO)C(C)C)sc1CCO2, CNC(=O)Cn1cccc(-c2ccc3c(c2)-c2nc(-c4ncnn4C(C)C)sc2CCO3)c1=O, CS(=O)(=O)n1cc(-c2ccc3c(c2)OCCc2sc(-c4ncnn4CC(F)(F)F)nc2-3)cn1, CO[C@@H]1CCCN(C(=O)c2nc3c(s2)CCOc2cc(-c4cn[nH]c4)ccc2-3)C1, CC(C)n1ncnc1-c1nc2c(s1)CCOc1ccc(-c3cccnc3)cc1-2, CC(C)n1ncnc1-c1cc2c(s1)-c1ccc(C3CNC3)cc1OCC2, Cc1nc(-c2nc3c(s2)CCOc2cc(C4COC4)ccc2-3)n(C(C)C)n1, CN(C)C1CCN(C(=O)c2nc3c(s2)CCOc2cc(-c4cn[nH]c4)ccc2-3)CC1, CC(C)n1ncnc1-c1nc2c(s1)CCOc1ccc(-c3cccn(C(C)C)c3=O)cc1-2, C[C@@H](O)CNC(=O)c1ccc(Cl)c(N(C)C(=O)c2cc3c(s2)-c2ccc(C(=O)NCCS(C)(=O)=O)cc2OCC3)c1, OCCn1cc(-c2ccc3c(c2)OCCc2sc(-c4ncnn4CCN4CCOCC4)nc2-3)cn1, O=C(c1nc2c(s1)CCOc1cc(-c3cn[nH]c3)ccc1-2)N1CC(F)(F)C1, CC(C)CN(C)C(=O)c1nc2c(s1)CCOc1cc(-c3cn[nH]c3)ccc1-2, COc1ccccc1C1CCN(C(=O)c2nc3c(s2)CCOc2cc(-c4cn[nH]c4)ccc2-3)CC1, Cc1nc(-c2nc3c(s2)CCOc2cc(C4CN(C[C@H](O)CO)C4)ccc2-3)n(C(C)C)n1, O=C(O)C1CCCN(C(=O)c2nc3c(s2)CCOc2cc(-c4cn[nH]c4)ccc2-3)C1 (stereo not drawn), COCCNc1ccc(-c2ccc3c(n2)-c2sc(-c4ncnn4-c4ccc(F)cc4F)cc2CCO3)cn1, O=C(c1nc2c(s1)CCOc1cc(-c3cn[nH]c3)ccc1-2)N1CCCC[C@@H]1CO, O=C(c1nc2c(s1)CCOc1cc(-c3cn[nH]c3)ccc1-2)N1CCN(C(=O)C(F)(F)F)CC1, Fc1ccc(-n2ncnc2-c2cc3c(s2)-c2ccc(C4CNC4)cc2OCC3)c(F)c1, O=C(c1nc2c(s1)CCOc1cc(-c3cn[nH]c3)ccc1-2)N1CCN2CCCC[C@@H]2C1, CC(C)n1ncnc1-c1nc2c(s1)CCOc1cc(C3CCN(CCO)CC3)ccc1-2, NC(=O)CNc1ccc2c(n1)-c1sc(-c3ncnn3-c3ccc(F)cc3F)cc1CCO2, CC(C)n1ncnc1-c1nc2c(s1)CCOc1cc(C3CCN(S(C)(=O)=O)C3)ccc1-2 (stereo not drawn), CN(CCc1ccccn1)C(=O)c1nc2c(s1)CCOc1cc(-c3cn[nH]c3)ccc1-2, CN(C[C@H]1CCCO1)C(=O)c1nc2c(s1)CCOc1cc(-c3cn[nH]c3)ccc1-2, CN1CCC(n2ncnc2-c2nc3c(s2)CCOc2cc(-c4cnn(CCO)c4)ccc2-3)CC1, CN(C)CCCOc1ccc(-c2ccc3c(c2)OCCc2sc(-c4ncnn4CC(F)(F)F)nc2-3)cn1, CC(C)n1ncnc1-c1nc2c(s1)CCOc1cc(C3CCN(C(C)(C)C(N)=O)CC3)ccc1-2, Cc1nc(-c2nc3c(s2)CCOc2cc(C4CN(CCS(C)(=O)=O)C4)ccc2-3)n(C(C)C)n1, CC(C)n1ncnc1-c1nc2c(s1)CCOc1ccc(-c3cccn(C)c3=O)cc1-2, Cc1nn(C(C)C)c(=O)n1-c1nc2c(s1)CCOc1cc(-c3cnn(CC(C)(C)O)c3)ccc1-2, CC(C)n1ncnc1-c1nc2c(s1)CCOc1ccc(-c3cnn(S(=O)(=O)c4ccccc4)c3)cc1-2, CN(CCO)c1ccc2c(n1)-c1sc(-c3ncnn3-c3ccc(F)cc3F)cc1CCO2, CS(=O)(=O)N1CCN(c2ccc3c(n2)-c2sc(-c4ncnn4-c4ccc(F)cc4F)cc2CCO3)CC1, CC(O)Cn1ncnc1-c1nc2c(s1)CCOc1cc(-c3cnn(CC(C)(C)O)c3)ccc1-2 (stereo not drawn), CC(C)n1ncnc1-c1nc2c(s1)CCOc1ccc(/C=C/S(C)(=O)=O)cc1-2, CC(C)n1ncnc1-c1nc2c(s1)CCOc1cc(C3CN(CCS(C)(=O)=O)C3)ccc1-2, CC(C)n1ncnc1-c1nc2c(s1)CCOc1cc(C3CN(S(C)(=O)=O)C3)ccc1-2, O=C(c1nc2c(s1)CCOc1cc(-c3cn[nH]c3)ccc1-2)N1CCC(CO)CC1, COCc1nc(-c2nc3c(s2)CCOc2ccccc2-3)n(C(C)C)n1, CS(=O)(=O)N1CC(Nc2ccc3c(n2)-c2sc(-c4ncnn4-c4ccc(F)cc4F)cc2CCO3)C1, Fc1ccc(-n2ncnc2-c2cc3c(s2)-c2nc(NC4COC4)ccc2OCC3)c(F)c1, CC(C)n1ncnc1-c1nc2c(s1)CCOc1cc(O[C@H](C)C(N)=O)ccc1-2, COc1ccc(CNc2ccc3c(n2)-c2sc(-c4ncnn4-c4ccc(F)cc4F)cc2CCO3)cc1, O=C(c1nc2c(s1)CCOc1cc(-c3cn[nH]c3)ccc1-2)N1CCCC1, CC(C)n1ncnc1-c1nc2c(s1)CCOc1ccc(-c3cccnc3F)cc1-2, Cc1nn(C)c(=O)n1-c1nc2c(s1)CCOc1cc(-c3cnn(CC(C)(C)O)c3)ccc1-2, CC(C)(CN)n1cc(-c2ccc3c(c2)OCCc2sc(-c4ncnn4CC(F)(F)F)nc2-3)cn1, O=C(c1nc2c(s1)CCOc1cc(-c3cn[nH]c3)ccc1-2)N1CCN(C[C@H]2CCCO2)CC1, CC(C)(O)Cn1cc(-c2ccc3c(c2)OCCc2sc(-c4ncnn4Cc4ccccn4)nc2-3)cn1, O=C(O)c1cccc(-c2ccc3c(c2)OCCc2sc(-c4ncnn4CC(F)(F)F)nc2-3)c1, CC(=O)N1CC(n2c(Cl)cnc2-c2nc3c(s2)CCOc2cc(-c4cnn(CC(C)(C)O)c4)ccc2-3)C1, COC1CCN(C(=O)c2nc3c(s2)CCOc2cc(-c4cn[nH]c4)ccc2-3)CC1, Fc1ccc(-n2ncnc2-c2cc3c(s2)-c2nc(NCCN4CCCC4)ccc2OCC3)c(F)c1, O=C(c1nc2c(s1)CCOc1cc(-c3cn[nH]c3)ccc1-2)N1CCN(c2ccccn2)CC1, CC1(C)C(=O)NC(=O)N1c1nc2c(s1)CCOc1cc(C3CCNCC3)ccc1-2, CC(C)Nc1ccc2c(n1)-c1sc(-c3ncnn3-c3ccc(F)cc3F)cc1CCO2, CC(C)n1ncnc1-c1nc2c(s1)CCOc1cc(C3CN(C(=O)C4(N)CC4)C3)ccc1-2, CC(C)n1ncnc1-c1nc2c(s1)CCOc1cc(C3CN(C(=O)[C@@H](C)O)C3)ccc1-2, CC1CCN(C(=O)c2nc3c(s2)CCOc2cc(-c4cn[nH]c4)ccc2-3)CC1, CC(C)n1ncnc1-c1nc2c(s1)CCOc1ccc(C(O)C(F)(F)F)cc1-2 (stereo not drawn), Fc1ccc(-n2ncnc2-c2cc3c(s2)-c2nc(NCC4CCCC4)ccc2OCC3)c(F)c1, C[C@@H]1CN(C2CCN(C(=O)c3nc4c(s3)CCOc3cc(-c5cn[nH]c5)ccc3-4)CC2)C[C@@H](C)O1, CC(C)n1ncnc1-c1nc2c(s1)CCOc1cc(C3CCN(CCS(C)(=O)=O)CC3)ccc1-2, Cc1cncc(-c2ccc3c(c2)-c2nc(-c4ncnn4C(C)C)sc2CCO3)c1, O=C(c1nc2c(s1)CCOc1cc(-c3cn[nH]c3)ccc1-2)N1CCC(F)(F)CC1, CC(C)n1nc(N)nc1-c1nc2c(s1)CCOc1cc(C3CN(CCS(C)(=O)=O)C3)ccc1-2, CC1CN(C(=O)c2nc3c(s2)CCOc2cc(-c4cn[nH]c4)ccc2-3)CCN1 (stereo not drawn), CC(C)n1cnnc1-c1nc2c(s1)CCOc1cc(CNCCO)ccc1-2, CC(C)N(CCO)C(=O)c1nc2c(s1)CCOc1cc(-c3cnn(CC(C)(C)O)c3)ccc1-2, CC(C)(O)Cn1cc(-c2ccc3c(c2)OCCc2sc(-c4ncnn4C4CCN(CCO)CC4)nc2-3)cn1, CC(C)n1ncnc1-c1nc2c(s1)CCOc1cc(-c3cccc(CC(N)=O)c3)ccc1-2, CC(C)(C(N)=O)n1cc(-c2ccc3c(c2)OCCc2sc(-c4ncnn4CC(F)(F)F)nc2-3)cn1, CC(C)(O)Cn1cc(-c2ccc3c(c2)OCCc2sc(-c4ncnn4Cc4ccncc4)nc2-3)cn1, CC(C)N(CCO)C(=O)c1nc2c(s1)CCOc1ccc(-c3cnn(C[C@@H](C)O)c3)cc1-2, CC(C)n1ncnc1-c1nc2c(s1)CCOc1ccc(C3CN(S(=O)(=O)CCO)C3)cc1-2, CC(C)n1ncnc1-c1nc2c(s1)CCOc1ccc(C3CCN(C(=O)[C@H](C)O)CC3)cc1-2, Cc1nc(N)ncc1-c1ccc2c(c1)-c1nc(C(=O)N(CCO)C(C)C)sc1CCO2, CC(C)n1nc(N)nc1-c1cc2c(s1)-c1ccc(-c3cnn(CC(C)(C)O)c3)cc1OCC2
